Reference: patent US20230027985A1, “SUBSTITUTED HYDANTOINAMIDES AS ADAMTS7 ANTAGONISTS” (Bayer Aktiengesellschaft, priority 2019, published 2023)

Experiments:
[1] = biological target: T1, Purified recombinant ADAMTS-7 (rat prodomain/human catalytic domain, SEQ ID No. 01 or 02) (Homo sapiens, UniProt Q9UKP4); assay: Assay for ADAMTS-7 enzymatic activity (FRET substrate cleavage); assay type: biochemical; settings: FRET substrate SEQ ID No. 11, 120 min at 32° C.; read-out: ADAMTS7-IC50
T1 construct: rat ADAMTS-7 signal peptide + prodomain (rat 1-217, Q1EHB3) (N); 2xStrep tag (C); 6xHis tag (C); made in house; host or cells: Expi293 cells
T1 sequence (Q9UKP4 237-537): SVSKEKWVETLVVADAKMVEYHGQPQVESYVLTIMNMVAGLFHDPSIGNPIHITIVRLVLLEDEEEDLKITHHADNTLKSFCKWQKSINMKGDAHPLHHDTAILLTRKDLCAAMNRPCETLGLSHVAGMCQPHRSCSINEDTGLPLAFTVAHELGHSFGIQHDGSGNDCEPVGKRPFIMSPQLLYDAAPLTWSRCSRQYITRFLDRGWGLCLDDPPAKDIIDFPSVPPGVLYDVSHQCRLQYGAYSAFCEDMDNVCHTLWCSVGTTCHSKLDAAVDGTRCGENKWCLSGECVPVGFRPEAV
Description: Purified recombinant ADAMTS-7 (as of SEQ ID No. 01 or SEQ ID No. 02) was diluted in reaction buffer (20 mM HEPES pH 8.0, 150 mM NaCl, 5 mM CaCl2, 0.004% Brij, 10 μM ZnCl2) fora concentration of approximately 20 nM. 25 μl of the solution were transferred into each well of a 384-well white microtiter plate (Greiner Bio-One 781075) and 1 μl test compound solution (modulator/inhibitor dissolved in DMSO, at the corresponding concentration) or pure DMSO as a control were added per well. […] Amino acids […] are derived from Thrombospondin-1 sequence (275-289). An additional carboxyl glutamic acid was added after the QXL520 quencher to increase substrate solubility. The microtiter plate was incubated for 120 min at the temperature of 32° C. The increase of fluorescence intensity was measured in appropriate fluorescence plate reader (e.g. TECAN Ultra) using excitation wavelength of 485 nm and emission wavelength of 520 nm. IC50 values were calculated from percentage of inhibition of ADAMTS-7 activity as a function of test compound concentration.

ADAMTS4 = biological target: T2, ADAMTS4 (Homo sapiens, UniProt O75173); assay: Selectivity assay for ADAMTS-7 modulators (FRET), ADAMTS4; assay type: biochemical; settings: 50 nM enzyme (R&D 4307-AD), 1 μM Dabcyl/Edans FRET substrate, 120 min at 32° C.
T2 construct: purchased R&D 4307-AD
T2 sequence (O75173 213-685 limits assumed): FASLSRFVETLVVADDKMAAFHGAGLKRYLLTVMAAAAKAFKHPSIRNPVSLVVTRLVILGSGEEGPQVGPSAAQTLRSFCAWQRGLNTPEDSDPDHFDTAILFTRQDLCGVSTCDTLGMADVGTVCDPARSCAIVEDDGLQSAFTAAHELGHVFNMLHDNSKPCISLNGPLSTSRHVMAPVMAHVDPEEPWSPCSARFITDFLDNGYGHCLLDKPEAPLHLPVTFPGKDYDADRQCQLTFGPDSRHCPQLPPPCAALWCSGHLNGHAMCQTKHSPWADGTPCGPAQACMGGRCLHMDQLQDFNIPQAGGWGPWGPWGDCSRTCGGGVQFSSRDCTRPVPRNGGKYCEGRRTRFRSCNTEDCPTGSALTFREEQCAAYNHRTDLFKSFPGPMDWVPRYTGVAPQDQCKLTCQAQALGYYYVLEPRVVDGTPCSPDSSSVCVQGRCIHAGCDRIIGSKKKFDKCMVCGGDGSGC
Description: The respective enzyme (see table 2 below) was diluted in reaction buffer (50 mM Tris, 2.5 μM ZnCl2, 0.05% BSA, 0.001% Brij, pH 7.5 for ADAM17; 50 mM Tris 7.5, 150 mM NaCl, 10 mM CaCl2, 0.05% Brij for all other enzymes) to the respective concentration and 25 μl were transferred into each well of a 384-well white microtiter plate (Greiner Bio One 781075). 1 μl test compound solution (dissolved in DMSO, at the corresponding concentration) or pure DMSO as a control was added per well. The enzymatic reaction was initiated by addition of 25 μl of the respective concentration of the respective FRET substrate (see table 2 below) in reaction buffer. The microtiter plate was incubated for 120 min at the temperature of 32° C. The increase of fluorescence intensity was measured in appropriate fluorescence plate reader (e.g. TECAN Ultra) using the respective wavelengths for excitation and emission. IC50 values were calculated from percentage of inhibition of enzyme activity as a function of test compound concentration.

SMILES: CC(C)(C)C1(CNC(=O)c2cnn(-c3ccc(C(F)(F)F)c(F)c3)n2)NC(=O)NC1=O (racemic) [Example 2, rac-N-{[4-tert-butyl-2,5-dioxoimidazolidin-4-yl]methyl}-2-[3-fluoro-4-(trifluoromethyl)phenyl]-2H-1,2,3-triazole-4-carboxamide]
- IC50 [1]: 210 nM

SMILES: CC(C)(C)C1(CNC(=O)c2cnn(-c3cccc(F)c3)n2)NC(=O)NC1=O (racemic) [Example 4, rac-N-{[4-tert-butyl-2,5-dioxoimidazolidin-4-yl]methyl}-2-(3-fluorophenyl)-2H-1,2,3-triazole-4-carboxamide]
- IC50 (ADAMTS4): 6.6 µM
- IC50 [1]: 260 nM

SMILES: CC(C)(C)C1(CNC(=O)c2cnn(-c3ccc(C(F)(F)F)cc3)n2)NC(=O)NC1=O (racemic) [Example 6, rac-N-[(4-tert-butyl-2,5-dioxoimidazolidin-4-yl)methyl]-2-[4-(trifluoromethyl)phenyl]-2H-1,2,3-triazole-4-carboxamide]
- IC50 [1]: 620 nM

SMILES: O=C1NC(=O)C(CNC(=O)c2cnn(-c3ccccc3)n2)(C2CCCOC2)N1 (racemic) [Example 7, rac-N-{[2,5-dioxo-4-(tetrahydro-2H-pyran-3-yl)imidazolidin-4-yl]methyl}-2-phenyl-2H-1,2,3-triazole-4-carboxamide]
- IC50 (ADAMTS4): 8.5 µM
- IC50 [1]: 62 nM

SMILES: O=C1NC(=O)C(CNC(=O)c2cnn(-c3ccccc3)n2)(C2CCOC2)N1 (racemic) [Example 19, rac-N-{[2,5-dioxo-4-(tetrahydrofuran-3-yl)imidazolidin-4-yl]methyl}-2-phenyl-2H-1,2,3-triazole-4-carboxamide]
- IC50 (ADAMTS4): 22 µM
- IC50 [1]: 170 nM

SMILES: O=C1NC(=O)C(CNC(=O)c2cnn(-c3ccccc3)n2)(c2ccccn2)N1 (racemic) [Example 20, rac-N-{[2,5-dioxo-4-(pyridin-2-yl)imidazolidin-4-yl]methyl}-2-phenyl-2H-1,2,3-triazole-4-carboxamide]
- IC50 (ADAMTS4): 4.8 µM
- IC50 [1]: 26 nM

SMILES: O=C1NC(=O)C(CNC(=O)c2cnn(-c3ccccc3)n2)(c2ccncc2)N1 (racemic) [Example 21, rac-N-{[2,5-dioxo-4-(pyridin-4-yl)imidazolidin-4-yl]methyl}-2-phenyl-2H-1,2,3-triazole-4-carboxamide]
- IC50 (ADAMTS4): 2.8 µM
- IC50 [1]: 200 nM

SMILES: O=C1NC(=O)C(CNC(=O)c2cnn(-c3ccc(F)cc3)n2)(c2ccccn2)N1 (racemic) [Example 22, rac-N-{[2,5-dioxo-4-(pyridin-2-yl)imidazolidin-4-yl]methyl}-2-(4-fluorophenyl)-2H-1,2,3-triazole-4-carboxamide]
- IC50 (ADAMTS4): 3 µM
- IC50 [1]: 10 nM

SMILES: O=C1NC(=O)C(CNC(=O)c2cnn(-c3ccc(F)cc3)n2)(c2cccnc2)N1 (racemic) [Example 23, rac-N-{[2,5-dioxo-4-(pyridin-3-yl)imidazolidin-4-yl]methyl}-2-(4-fluorophenyl)-2H-1,2,3-triazole-4-carboxamide]
- IC50 (ADAMTS4): 4.5 µM
- IC50 [1]: 30 nM

SMILES: O=C1NC(=O)C(CNC(=O)c2cnn(-c3ccc(F)cc3)n2)(c2ccncc2)N1 (racemic) [Example 24, rac-N-{[2,5-dioxo-4-(pyridin-4-yl)imidazolidin-4-yl]methyl}-2-(4-fluorophenyl)-2H-1,2,3-triazole-4-carboxamide]
- IC50 (ADAMTS4): 2.9 µM
- IC50 [1]: 140 nM

SMILES: CC(C)C1(CNC(=O)c2cnn(-c3ccccc3)n2)NC(=O)NC1=O (racemic) [Example 48, rac-N-[(2,5-dioxo-4-(propan-2-yl)imidazolidin-4-yl)methyl]-2-phenyl-2H-1,2,3-triazole-4-carboxamide]
- IC50 (ADAMTS4): 14.5 µM
- IC50 [1]: 265 nM

SMILES: CC(C)(C)C1(CNC(=O)c2cnn(-c3ccccc3)n2)NC(=O)NC1=O (racemic) [Example 49, rac-[(4-tert-butyl-2,5-dioxoimidazolidin-4-yl)methyl]-2-phenyl-2H-1,2,3-triazole-4-carboxamide]
- IC50 (ADAMTS4): 15 µM
- IC50 [1]: 70 nM

SMILES: O=C1NC(=O)C(CNC(=O)c2cnn(-c3ccccc3)n2)(C2CCCC2)N1 (racemic) [Example 50, rac-N-[(4-cyclopentyl-2,5-dioxoimidazolidin-4-yl)methyl]-2-phenyl-2H-1,2,3-triazole-4-carboxamide]
- IC50 [1]: 191 nM

SMILES: CCCCC1(CNC(=O)c2cnn(-c3ccccc3)n2)NC(=O)NC1=O (racemic) [Example 51, rac-N-[(4-butyl-2,5-dioxoimidazolidin-4-yl)methyl]-2-phenyl-2H-1,2,3-triazole-4-carboxamide]
- IC50 (ADAMTS4): 15 µM
- IC50 [1]: 89 nM

SMILES: O=C1NC(=O)C(CNC(=O)c2cnn(-c3ccccc3)n2)(C2CCC2)N1 (racemic) [Example 52, rac-N-[4-cyclobutyl-2,5-dioxoimidazolidin-4-yl)methyl]-2-phenyl-2H-1,2,3-triazole-4-carboxamide]
- IC50 (ADAMTS4): 14 µM
- IC50 [1]: 55 nM

SMILES: O=C1NC(=O)C(CNC(=O)c2cnn(-c3ccccc3)n2)(C2CCCCC2)N1 (racemic) [Example 53, rac-N-[(4-cyclohexyl-2,5-dioxoimidazolidin-4-yl)methyl]-2-phenyl-2H-1,2,3-triazole-4-carboxamide]
- IC50 [1]: 145 nM

SMILES: O=C1NC(=O)C(CNC(=O)c2cnn(-c3ccc(F)cc3)n2)(CC2CC2)N1 (racemic) [Example 64, rac-N-[4-(cyclopropylmethyl)-2,5-dioxoimidazolidin-4-yl)methyl]-2-(4-fluorophenyl)-2H-1,2,3-triazole-4-carboxamide]
- IC50 [1]: 240 nM

SMILES: O=C1NC(=O)C(CNC(=O)c2cnn(-c3ccc(F)cc3)n2)(C2CCCC2)N1 (racemic) [Example 66, rac-N-[(4-cyclopentyl-2,5-dioxoimidazolidin-4-yl]methyl]-2-(4-fluorophenyl)-2H-1,2,3-triazole-4-carboxamide]
- IC50 [1]: 380 nM

SMILES: O=C1NC(=O)C(CNC(=O)c2cnn(-c3ccc(F)cc3)n2)(c2ncsc2C2CC2)N1 (racemic) [Example 157, rac-N-{[4-(5-cyclopropyl-1,3-thiazol-4-yl)-2,5-dioxoimidazolidin-4-yl]methyl}-2-(4-fluorophenyl)-2H-1,2,3-triazole-4-carboxamide]
- IC50 (ADAMTS4): 0.46 µM

SMILES: O=C1NC(=O)C(CNC(=O)c2cnn(-c3ccc(F)cc3)n2)(c2ccccn2)N1 (single isomer, unassigned) [Example 138, ent-N-{[2,5-dioxo-4-(pyridin-2-yl)imidazolidin-4-yl]methyl}-2-(4-fluorophenyl)-2H-1,2,3-triazole-4-carboxamide]
- IC50 [1]: 590 nM

SMILES: O=C1NC(=O)C(CNC(=O)c2cnn(-c3ccc(Cl)c(F)c3)n2)(C2CCC2)N1 (single isomer, unassigned; ent-2) [Example 89, ent-2-(4-chloro-3-fluorophenyl)-N-[(4-cyclobutyl-2,5-dioxoimidazolidin-4-yl)methyl]-2H-1,2,3-triazole-4-carboxamide]
- IC50 (ADAMTS4): 0.975 µM

SMILES: C[C@@H](NC(=O)c1cnn(-c2ccccc2)n1)C1(C2CC2)NC(=O)NC1=O (stereo partly drawn) [Example 39, ent-N-((1R)-1-(4-Cyclopropyl-2,5-dioxoimidazolidin-4-yl)ethyl)-2-phenyl-2H-1,2,3-triazole-4-carboxamide]
- IC50 [1]: 710 nM
